Results as given in PubChem BioAssay (NCI).
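1) Cells in 96-well plates. 2) Compound, 48 h, 5 concentrations. 3) Linear interpolation between surrounding doses. 4) Unreached endpoint = highest concentration. At the TGI there is no net growth.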

Columns and labels:
Test in all cases: NCI tumour cell line growth inhibition, 48 h
SF-539 CNS = test system: SF-539 CNS
HCC-2998 colon = test system: HCC-2998 colon
OVCAR-8 ovarian = test system: OVCAR-8 ovarian
TK-10 renal = test system: TK-10 renal
BT-549 breast = test system: BT-549 breast
SF-295 CNS = test system: SF-295 CNS
UACC-62 melanoma = test system: UACC-62 melanoma
HOP-92 NSCLC = test system: HOP-92 NSCLC
SR leukemia = test system: SR leukemia
SK-MEL-5 melanoma = test system: SK-MEL-5 melanoma

Row | SMILES | TGI (SF-539 CNS) [µM] | TGI (HCC-2998 colon) [µM] | TGI (OVCAR-8 ovarian) [µM] | TGI (TK-10 renal) [µM] | TGI (BT-549 breast) [µM] | TGI (SF-295 CNS) [µM] | TGI (UACC-62 melanoma) [µM] | TGI (HOP-92 NSCLC) [µM] | TGI (SR leukemia) [µM] | TGI (SK-MEL-5 melanoma) [µM]
1 | Fc1ccccc1N=c1oc2ccc(Br)cc2cc1-c1nc2ccccc2[nH]1 | 4.58 | > 35.2 | > 36.5 | 17.2 | 26.7 | 23.2 | 51.5 | 83.8 | > 100 | 35.7
2 | O=C1c2c(ccc3c2CCCC3)CC12Cc1ccccc1C2 | > 75.3 | > 74.8 | > 100 | > 100 | > 100 | > 100 | > 100 | 51.7 | > 27.6 | 22.3
3 | O=C1NC(N2CCCC(CO)C2)=N/C1=C\c1ccc(O)cc1 (stereo not drawn) | > 100 | > 100 | > 100 | > 100 | > 100 | > 100 | > 100 | > 100 | > 100 | > 100
4 | CCOC(=O)C1C(=O)C=C(c2cc(C)ccc2O)CC1c1cccc(Br)c1 (stereo not drawn) | 35.2 | 34.6 | 92.7 | 42.1 | 72.7 | 35.5 | 28 | 29.8 | 25.4 | 28.5
5 | O=C1N[C@@H](c2c[nH]c3ccc(Br)cc23)C(=O)N[C@H]1c1c[nH]c2ccc(Br)cc12 | 18.9 | 11.8 | 26 | 21.7 | 35.4 | 25.2 | 23.2 | 15.5 | 19.3 | 17.7
6 | O=S(=O)(CC#CCS(=O)(=O)c1ccccc1)c1ccccc1 | 6.86 | 35.8 | 5.16 | 7.61 | 11.8 | 43.6 | 11.5 | 3.39 | > 100 | 10.4
7 | COc1cccc2c(NNc3ccc(Cl)cc3)c3ccc([N+](=O)[O-])cc3nc12 | 33 | 53 |  | 25.8 | 29.8 | 36.1 | 26.3 | 27.7 | 4 | 80.4
8 | Clc1ccc(CCN2CCN(CCCc3ccccc3)CC2)cc1Cl | 32.4 | 31.3 | 30.4 | 30.1 | 29.4 | 30 | 31.5 | 23.6 | 78.8 | 29.9
9 | C[Si](C)(C)C1=C2C(=O)c3ccccc3C(=O)C2=C([Si](C)(C)C)[C@@H]2CCCC[C@H]12 | > 100 | > 100 |  | > 100 | > 100 | > 100 | > 100 | > 100 | > 100 | > 100
10 | O=C(C(Cl)=C(Nc1ccccc1)Nc1ccccc1)C(Cl)Cl | > 100 | 37.3 | 42.8 | > 100 | > 100 | > 100 | 54.1 | 65.6 | 49.4 | 35.6
11 | N#C/C(=C/NC(=S)Nc1ccc(S(N)(=O)=O)cc1)C(N)=O | > 100 | > 100 | > 100 | > 100 | > 100 | > 100 | > 100 | > 100 | > 100 | > 100
12 | CC(C)(C)OC(=O)N1CC(COS(C)(=O)=O)c2ccc(O)cc21 (stereo not drawn) | 3.84 | 0.991 | 4.51 | 8.76 | 3.58 | 10.8 | 3.2 | 5.56 | 5.31 | 2.92
13 | C=C(Cl)C(Cl)(CBr)CCC(Cl)C(C)C (stereo not drawn) | 2.59 | 15.2 | > 100 | 3.12 | 27.9 | 6.48 | 14 | 3.52 | > 54.7 | 42.8
14 | COc1cccc(C(=O)C(O)c2cccc(OC)c2OC)c1OC (stereo not drawn) | > 100 | > 100 | > 100 | > 100 | > 100 | > 100 | > 100 | > 100 | > 100 | > 100
15 | COc1cc(C=Nc2ccc(Oc3ccc(Cl)cc3)c(Cl)c2)cc(OC)c1OC | 35.2 | 40.3 | 62.1 | > 100 | 38 | 37.3 | 30.4 | 39.4 | 54.1 | 34.9
16 | O=c1n(CCO)nc2n1CCCN2 | > 100 | > 100 | > 100 | > 100 | > 100 | > 100 | > 100 | > 100 | > 100 | > 100
17 | C=CC(C)(C)c1cc([C@@H]2COc3cc(O)ccc3C2=O)c(O)c(OC)c1OC | 44 | 34.3 | 54.3 | > 100 | 25.1 | 27.5 | 27.5 | 21.6 | > 100 | 22.7
